Patent US9302999B2, “Substituted triazoles as herbicides” (E. I. DU PONT DE NEMOURS AND COMPANY, priority 2012, dated 2016)

Experiments:
Format in all cases: in vivo
[1] = tested on: field bindweed (Convolvulus arvensis); assay: Test F pre-/postemergence: field bindweed
Procedure, shortened: (§1)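 Seeds were sown in silt loam soil and sprayed preemergence with test chemical in a non-phytotoxic solvent mixture containing surfactant; postemergence treatments went onto plants 2 to 18 cm tall (1- to 4-leaf stage) grown in peat moss/vermiculite medium. After 14 to 21 days in a greenhouse, injury was rated visually against controls, 0 (no effect) to 100 (complete control).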

[2] = tested on: wheat, winter (winter wheat, Triticum aestivum); assay: Test D pre-/postemergence: wheat, winter
Procedure, shortened: (§2)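 We sprayed chemicals in a surfactant-containing solvent onto silt loam at planting (preemergence) and onto 1- to 4-leaf seedlings (postemergence). Fourteen to 21 days later, each species was rated visually from 0 to 100 relative to controls.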

[3] = tested on: goosegrass (Eleusine indica); assay: Test F pre-/postemergence: goosegrass; settings: Preemergence
Procedure, shortened: as §1

[4] = tested on: pigweed, palmer (palmer pigweed, Amaranthus palmeri); assay: Test F pre-/postemergence: pigweed, palmer; settings: scale 0 to 100
Procedure, shortened: as §1

[5] = tested on: velvetleaf (Abutilon theophrasti); assay: Test F pre-/postemergence: velvetleaf; settings: Preemergence
Procedure, shortened: as §1

[6] = tested on: ragweed (common ragweed, Ambrosia elatior); assay: Test F pre-/postemergence: ragweed; settings: Preemergence
Procedure, shortened: as §1

[7] = tested on: dayflower, VA (Virginia (VA) dayflower, Commelina virginica); assay: Test F pre-/postemergence: dayflower, VA
Procedure, shortened: as §1

[8] = tested on: buckwheat, wild (wild buckwheat, Polygonum convolvulus); assay: Test D pre-/postemergence: buckwheat, wild
Procedure, shortened: as §2

[9] = tested on: bluegrass (annual bluegrass, Poa annua); assay: Test D pre-/postemergence: bluegrass
Procedure, shortened: as §2

[10] = tested on: cocklebur (common cocklebur, Xanthium strumarium); assay: Test F pre-/postemergence: cocklebur; settings: Preemergence
Procedure, shortened: as §1

[11] = tested on: foxtail, green (green foxtail Setaria viridis); assay: Test F pre-/postemergence: foxtail, green; settings: Preemergence
Procedure, shortened: as §1

[12] = Preemergence, 62 g ai/ha, scale 0 to 100
[13] = Preemergence, 125 g ai/ha, scale 0 to 100
[14] = Preemergence, 250 g ai/ha, scale 0 to 100
[15] = Postemergence, 31 g ai/ha, scale 0 to 100 (0 no effect, 100 complete control)
[16] = Postemergence, 62 g ai/ha, scale 0 to 100 (0 no effect, 100 complete control)
[17] = Postemergence, 125 g ai/ha, scale 0 to 100, 0 no effect, 100 complete control
[18] = Postemergence, 16 g ai/ha, scale 0 to 100
[19] = Preemergence, 16 g ai/ha, scale 0 to 100, 0 no effect, 100 complete control
[20] = Preemergence, 31 g ai/ha, scale 0 to 100, 0 no effect, 100 complete control
[21] = Postemergence, 8 g ai/ha, scale 0 to 100
[22] = Postemergence, 31 g ai/ha, scale 0 to 100
[23] = Postemergence, 62 g ai/ha, scale 0 to 100
[24] = Postemergence, 125 g ai/ha, scale 0 to 100
[25] = Preemergence, 8 g ai/ha, scale 0 to 100, 0 no effect, 100 complete control
[26] = 8 g ai/ha, scale 0 to 100, 0 no effect, 100 complete control
[27] = 16 g ai/ha, scale 0 to 100, 0 no effect, 100 complete control
[28] = 31 g ai/ha, scale 0 to 100, 0 no effect, 100 complete control

CCc1nn(-c2ccc(C(F)(F)F)cc2)nc1Cc1ccnc(C(F)(F)F)c1 [Compound 155]
Plant response rating, Field Bindweed [1, 12]: 85
Plant response rating, Field Bindweed [1, 13]: 95
Plant response rating, Field Bindweed [1, 14]: 100
Plant response rating: Wheat, Winter [2, 15]: 10
Plant response rating: Wheat, Winter [2, 16]: 15
Plant response rating: Wheat, Winter [2, 17]: 25
Plant response rating, Wheat, Winter [2, 18]: 5
Plant response rating, Wheat, Winter [2, 19]: 0
Plant response rating, Wheat, Winter [2, 20]: 0
Plant response rating, Wheat, Winter [2, 12]: 5
Plant response rating, Wheat, Winter [2, 13]: 5
Plant response rating, Goosegrass ([3]; 62 g ai/ha, scale 0 to 100): 100
Plant response rating, Goosegrass ([3]; 125 g ai/ha, scale 0 to 100): 100
Plant response rating, Goosegrass ([3]; 250 g ai/ha, scale 0 to 100): 100
Plant response rating, Pigweed, Palmer ([4]; Preemergence, 125 g ai/ha): 100
Plant response rating, Pigweed, Palmer ([4]; Preemergence, 250 g ai/ha): 100
Plant response rating, Velvetleaf ([5]; 125 g ai/ha, scale 0 to 100): 98
Plant response rating, Velvetleaf ([5]; 250 g ai/ha, scale 0 to 100): 98
Plant response rating, Ragweed ([6]; 125 g ai/ha, scale 0 to 100): 50
Plant response rating, Ragweed ([6]; 250 g ai/ha, scale 0 to 100): 80
Plant response rating, Dayflower, VA [7, 12]: 20
Plant response rating, Dayflower, VA [7, 13]: 35
Plant response rating, Dayflower, VA [7, 14]: 60
Plant response rating: Buckwheat, Wild [8, 15]: 70
Plant response rating: Buckwheat, Wild [8, 16]: 70
Plant response rating: Buckwheat, Wild [8, 17]: 75
Plant response rating, Buckwheat, Wild [8, 18]: 75
Plant response rating, Buckwheat, Wild [8, 19]: 10
Plant response rating, Buckwheat, Wild [8, 20]: 25
Plant response rating, Buckwheat, Wild [8, 12]: 50
Plant response rating, Buckwheat, Wild [8, 13]: 70
Plant response rating: Bluegrass [9, 15]: 35
Plant response rating: Bluegrass [9, 16]: 75
Plant response rating: Bluegrass [9, 17]: 90
Plant response rating, Bluegrass [9, 18]: 20
Plant response rating, Bluegrass [9, 19]: 15
Plant response rating, Bluegrass [9, 20]: 15
Plant response rating, Bluegrass [9, 12]: 60
Plant response rating, Bluegrass [9, 13]: 85
Plant response rating, Cocklebur ([10]; 62 g ai/ha, scale 0 to 100): 0
Plant response rating, Cocklebur ([10]; 125 g ai/ha, scale 0 to 100): 40
Plant response rating, Cocklebur ([10]; 250 g ai/ha, scale 0 to 100): 40
Plant response rating, Foxtail, Green ([11]; 62 g ai/ha, scale 0 to 100): 100
Plant response rating, Foxtail, Green ([11]; 125 g ai/ha, scale 0 to 100): 100
Plant response rating, Foxtail, Green ([11]; 250 g ai/ha, scale 0 to 100): 100

CCOc1nn(-c2ccc(F)cc2)nc1Cc1ccnc(C(F)(F)F)c1 [Compound 196, 4-[[5-ethoxy-2-(4-fluorophenyl)-2H-1,2,3-triazol-4-yl]methyl]-2-(trifluoromethyl)pyridine]
Plant response rating, Field Bindweed [1, 21]: 50
Plant response rating, Field Bindweed [1, 18]: 60
Plant response rating, Field Bindweed [1, 22]: 70
Plant response rating, Field Bindweed [1, 23]: 75
Plant response rating, Field Bindweed [1, 24]: 75
Plant response rating, Field Bindweed [1, 25]: 0
Plant response rating, Field Bindweed [1, 19]: 0
Plant response rating, Field Bindweed [1, 20]: 25
Plant response rating, Field Bindweed [1, 13]: 65
Plant response rating: Wheat, Winter [2, 15]: 20
Plant response rating: Wheat, Winter [2, 16]: 25
Plant response rating: Wheat, Winter [2, 17]: 35
Plant response rating, Wheat, Winter [2, 18]: 15
Plant response rating, Wheat, Winter [2, 19]: 5
Plant response rating, Wheat, Winter [2, 20]: 5
Plant response rating, Wheat, Winter [2, 12]: 10
Plant response rating, Wheat, Winter [2, 13]: 15
Plant response rating, Goosegrass [3, 26]: 40
Plant response rating, Goosegrass [3, 27]: 60
Plant response rating, Goosegrass [3, 28]: 75
Plant response rating, Goosegrass ([3]; 62 g ai/ha, scale 0 to 100): 100
Plant response rating, Goosegrass ([3]; 125 g ai/ha, scale 0 to 100): 100
Plant response rating, Pigweed, Palmer ([4]; Postemergence, 8 g ai/ha): 95
Plant response rating, Pigweed, Palmer ([4]; Postemergence, 16 g ai/ha): 100
Plant response rating, Pigweed, Palmer ([4]; Postemergence, 31 g ai/ha): 100
Plant response rating, Pigweed, Palmer ([4]; Postemergence, 62 g ai/ha): 100
Plant response rating, Pigweed, Palmer ([4]; Postemergence, 125 g ai/ha): 100
Plant response rating, Velvetleaf [5, 26]: 0
Plant response rating, Velvetleaf [5, 27]: 10
Plant response rating, Velvetleaf [5, 28]: 20
Plant response rating, Velvetleaf ([5]; 125 g ai/ha, scale 0 to 100): 95
Plant response rating, Ragweed [6, 26]: 0
Plant response rating, Ragweed [6, 27]: 0
Plant response rating, Ragweed [6, 28]: 0
Plant response rating, Ragweed ([6]; 125 g ai/ha, scale 0 to 100): 50
Plant response rating, Dayflower, VA [7, 21]: 30
Plant response rating, Dayflower, VA [7, 18]: 50
Plant response rating, Dayflower, VA [7, 22]: 60
Plant response rating, Dayflower, VA [7, 23]: 60
Plant response rating, Dayflower, VA [7, 24]: 70
Plant response rating, Dayflower, VA [7, 25]: 5
Plant response rating, Dayflower, VA [7, 19]: 35
Plant response rating, Dayflower, VA [7, 20]: 35
Plant response rating, Dayflower, VA [7, 12]: 50
Plant response rating, Dayflower, VA [7, 13]: 65
Plant response rating: Buckwheat, Wild [8, 15]: 70
Plant response rating: Buckwheat, Wild [8, 16]: 90
Plant response rating: Buckwheat, Wild [8, 17]: 95
Plant response rating, Buckwheat, Wild [8, 18]: 50
Plant response rating, Buckwheat, Wild [8, 19]: 60
Plant response rating, Buckwheat, Wild [8, 20]: 45
Plant response rating, Buckwheat, Wild [8, 12]: 70
Plant response rating, Buckwheat, Wild [8, 13]: 95
Plant response rating: Bluegrass [9, 15]: 70
Plant response rating: Bluegrass [9, 16]: 75
Plant response rating: Bluegrass [9, 17]: 80
Plant response rating, Bluegrass [9, 18]: 60
Plant response rating, Bluegrass [9, 19]: 5
Plant response rating, Bluegrass [9, 20]: 35
Plant response rating, Bluegrass [9, 12]: 75
Plant response rating, Bluegrass [9, 13]: 100
Plant response rating, Cocklebur [10, 28]: 0
Plant response rating, Cocklebur ([10]; 62 g ai/ha, scale 0 to 100): 0
Plant response rating, Cocklebur ([10]; 125 g ai/ha, scale 0 to 100): 0
Plant response rating, Foxtail, Green [11, 26]: 75
Plant response rating, Foxtail, Green [11, 27]: 75
Plant response rating, Foxtail, Green [11, 28]: 85
Plant response rating, Foxtail, Green ([11]; 62 g ai/ha, scale 0 to 100): 100
Plant response rating, Foxtail, Green ([11]; 125 g ai/ha, scale 0 to 100): 100
